Results on 52 compounds are retold here after article PMC11995724, “Antibiotic target discovery by integrated phenotypic and activity-based profiling of electrophilic fragments” (Cell chemical biology, 2025).

This data set is described as follows: in vitro. To be noted: human, hek293t cells.
For `CCCCNC(=O)C(C#N)=Cc1ccc(F)cc1` [9-P13, N-butyl-2-cyano-3-(4-fluorophenyl)prop-2-enamide], the viability at 48 h, 25 µM stood at 124%.
On to `Cc1ccc(C=C(C#N)C(=O)Nc2ccc(C(=O)N(C)C)cc2)o1` [9-P14, 4-[2-cyano-3-(5-methylfuran-2-yl)prop-2-enamido]-N,N-dimethylbenzamide], for which the viability at 48 h, 25 µM was determined as 119%.
Consider `N#CC(=Cc1cn2cc(Cl)ccc2n1)C(=O)NC1CCCC1` [9-P15, 3-{6-chloroimidazo[1,2-a]pyridin-2-yl}-2-cyano-N-cyclopentylprop-2-enamide], for which the viability at 48 h, 25 µM was 120%.
Regarding `CNC(=O)C(C#N)=Cc1cc(C)n(-c2cccc3ccccc23)c1C` [9-P16, 2-cyano-3-[2,5-dimethyl-1-(naphthalen-1-yl)-1H-pyrrol-3-yl]-N-methylprop-2-enamide], the viability at 48 h, 25 µM was 109%.
Regarding `N#CC(=Cc1cc(Cl)ccc1O)C(=O)Nc1cccc2ccccc12` [9-P17, 3-(5-chloro-2-hydroxyphenyl)-2-cyano-N-(naphthalen-1-yl)prop-2-enamide], the viability at 48 h, 25 µM turned out to be 130%.
For the compound `N#CC(=Cc1cnc2ccccn12)C(=O)NCc1ccccc1` [9-P18, N-benzyl-2-cyano-3-{imidazo[1,2-a]pyridin-3-yl}prop-2-enamide], the viability at 48 h, 25 µM came to 127%.
The result for `COc1ccccc1NC(=O)C(C#N)=Cc1sccc1C` [9-P19, 2-cyano-N-(2-methoxyphenyl)-3-(3-methylthiophen-2-yl)prop-2-enamide] reads 133%; that for `CC(C)Oc1ccccc1C=C(C#N)C(=O)Nc1cccc(Cl)c1` [9-P20, N-(3-chlorophenyl)-2-cyano-3-[2-(propan-2-yloxy)phenyl]prop-2-enamide], 107%.
Consider `N#CC(=Cc1ccc(C#N)cc1)C(=O)N1CCCC1` [9-P21, 4-[2-cyano-2-(pyrrolidine-1-carbonyl)eth-1-en-1-yl]benzonitrile], for which the viability at 48 h, 25 µM was 117%.
On to `C/C(O)=C(\C#N)C(=O)Nc1ccc(-c2ccccc2Cl)cc1` [9-P22, (2Z)-N-{2'-chloro-[1,1'-biphenyl]-4-yl}-2-cyano-3-hydroxybut-2-enamide], for which the viability at 48 h, 25 µM amounted to 107%.
As to `O=C1C=CC(=O)N1c1ccccc1Sc1ccc(Cl)cc1` [10-A03, 1-{2-[(4-chlorophenyl)sulfanyl]phenyl}-2,5-dihydro-1H-pyrrole-2,5-dione], the viability at 48 h, 25 µM was 7.21%.
Regarding `CC1Cc2cc(C(=O)CCl)ccc2N1S(C)(=O)=O` (stereo not shown) [10-A04, 2-chloro-1-(1-methanesulfonyl-2-methyl-2,3-dihydro-1H-indol-5-yl)ethan-1-one], the viability at 48 h, 25 µM came to 0.28%.
Take `COc1ccc(CCN2C(=O)C=CC2=O)cc1` [10-A05, 1-[2-(4-methoxyphenyl)ethyl]-2,5-dihydro-1H-pyrrole-2,5-dione]: the viability at 48 h, 25 µM is 5.85%.
Take `Cc1cc(C(=O)C(C)Cl)c(C)n1-c1ccccc1` (stereo not shown) [10-A06, 2-chloro-1-(2,5-dimethyl-1-phenyl-1H-pyrrol-3-yl)propan-1-one]: the viability at 48 h, 25 µM was 99.9%.
Turning to `COC(=O)c1sccc1N1C(=O)C=CC1=O` [10-A07, methyl 3-(2,5-dioxo-2,5-dihydro-1H-pyrrol-1-yl)thiophene-2-carboxylate], the viability at 48 h, 25 µM came to 16.6%.
Turning to `CC(Cl)C(=O)c1ccc(NS(C)(=O)=O)cc1` (stereo not shown) [10-A08, N-[4-(2-chloropropanoyl)phenyl]methanesulfonamide], the viability at 48 h, 25 µM came to 93.7%.
`Cc1ccc(C(=O)CCl)o1` [10-A09, 2-chloro-1-(5-methylfuran-2-yl)ethan-1-one]: the viability at 48 h, 25 µM worked out at 48.3%.
In the case of `CCOC(=O)c1[nH]c(C)c(C(=O)CCl)c1C` [10-A10, ethyl 4-(2-chloroacetyl)-3,5-dimethyl-1H-pyrrole-2-carboxylate], the viability at 48 h, 25 µM turned out to be 0.365%.
As for `CC(=O)Nc1c(C)cc(C)c(C(=O)CCl)c1C` [10-A12, N-[3-(2-chloroacetyl)-2,4,6-trimethylphenyl]acetamide], the viability at 48 h, 25 µM turned out to be 98.1%.
Consider `Cc1cc(C(=O)CCl)co1` [10-A13, 2-chloro-1-(5-methylfuran-3-yl)ethan-1-one], for which the viability at 48 h, 25 µM amounted to 41.5%.
In the case of `CCOc1ccc(N2C(=O)C=CC2=O)cc1` [10-A14, 1-(4-ethoxyphenyl)-2,5-dihydro-1H-pyrrole-2,5-dione], the viability at 48 h, 25 µM is 4.27%.
With `O=C(CCl)Cc1ccc(Cl)cc1Cl` [10-A15, 1-chloro-3-(2,4-dichlorophenyl)propan-2-one], the viability at 48 h, 25 µM stood at 0.248%.
As for `O=C(CCl)c1c[nH]c(C(=O)N2CCCC2)c1` [10-A16, 2-chloro-1-[5-(pyrrolidine-1-carbonyl)-1H-pyrrol-3-yl]ethan-1-one], the viability at 48 h, 25 µM came to 0.377%.
As to `CC(Cl)C(=O)c1ccc(F)c(F)c1` (stereo not shown) [10-A17, 2-chloro-1-(3,4-difluorophenyl)propan-1-one], the viability at 48 h, 25 µM was 66.4%.
In the case of `O=C1C=CC(=O)N1c1ccc(SC(F)F)cc1` [10-A18, 1-{4-[(difluoromethyl)sulfanyl]phenyl}-2,5-dihydro-1H-pyrrole-2,5-dione], the viability at 48 h, 25 µM is 3.22%.
`O=C(CCl)C1CC12CCCCC2` (stereo not shown) [10-A19, 2-chloro-1-{spiro[2.5]octan-1-yl}ethan-1-one]: the viability at 48 h, 25 µM is 86.3%.
As for `Cn1ncc2ccc(CNC(=O)N3CCSSCC3)cc21` [10-A20, N-[(1-methyl-1H-indazol-6-yl)methyl]-1,2,5-dithiazepane-5-carboxamide], the viability at 48 h, 25 µM was 93.8%.
With `NC(=O)Cc1ccc(C(=O)CCl)s1` [10-A21, 2-[5-(2-chloroacetyl)thiophen-2-yl]acetamide], the viability at 48 h, 25 µM stood at 46.6%.
Turning to `Cc1cccc(-n2c(C)cc(C(=O)CCl)c2C)c1` [10-A22, 2-chloro-1-[2,5-dimethyl-1-(3-methylphenyl)-1H-pyrrol-3-yl]ethan-1-one], the viability at 48 h, 25 µM was determined as 0.013%.
Consider `CC(=O)NCCc1ccc(C(=O)C(C)Cl)cc1` (stereo not shown) [10-B03, N-{2-[4-(2-chloropropanoyl)phenyl]ethyl}acetamide], for which the viability at 48 h, 25 µM was 85.1%.
Turning to `Cn1cccc1C(=O)CCl` [10-B04, 2-chloro-1-(1-methyl-1H-pyrrol-2-yl)ethan-1-one], the viability at 48 h, 25 µM was 64.6%.
As for `O=C(CCl)c1c[nH]c2ccccc12` [10-B05, 2-chloro-1-(1H-indol-3-yl)ethan-1-one], the viability at 48 h, 25 µM is 111%.
As for `O=C(CCl)c1ccc(NC(=O)c2ccccc2)cc1` [10-B06, N-[4-(2-chloroacetyl)phenyl]benzamide], the viability at 48 h, 25 µM was found to be 1.37%.
Take `O=C(O)c1coc(C(=O)CCl)c1` [10-B07, 5-(2-chloroacetyl)furan-3-carboxylic acid]: the viability at 48 h, 25 µM amounted to 107%.
As to `Cc1cc(C(=O)CCl)c(C)n1CC1CCCO1` (stereo not shown) [10-B08, 2-chloro-1-{2,5-dimethyl-1-[(oxolan-2-yl)methyl]-1H-pyrrol-3-yl}ethan-1-one], the viability at 48 h, 25 µM worked out at 54.2%.
As for `N#Cc1ccc(N2C(=O)C=CC2=O)cc1` [10-B09, 4-(2,5-dioxo-2,5-dihydro-1H-pyrrol-1-yl)benzonitrile], the viability at 48 h, 25 µM was 82.1%.
The result for `O=C(CCl)c1ccc(C(F)(F)F)cc1` [10-B10, 2-chloro-1-[4-(trifluoromethyl)phenyl]ethan-1-one] reads 13.9%.
For `O=C(c1cc(=O)[nH]c2ccc([N+](=O)[O-])cc12)N1CCSSCC1` [10-B11, 4-(1,2,5-dithiazepane-5-carbonyl)-6-nitro-1,2-dihydroquinolin-2-one], the viability at 48 h, 25 µM was 111%.
`Cc1cc(C(=O)CCl)c(C)n1C1CCS(=O)(=O)C1` (stereo not shown) [10-B12, 3-[3-(2-chloroacetyl)-2,5-dimethyl-1H-pyrrol-1-yl]-1lambda6-thiolane-1,1-dione]: the viability at 48 h, 25 µM came out at 3.75%.
As to `N#Cc1ccccc1N1C(=O)C=CC1=O` [10-B13, 2-(2,5-dioxo-2,5-dihydro-1H-pyrrol-1-yl)benzonitrile], the viability at 48 h, 25 µM amounted to 65.2%.
In the case of `Cc1ccc(-n2c(C)cc(C(=O)CCl)c2C)cc1C` [10-B14, 2-chloro-1-[1-(3,4-dimethylphenyl)-2,5-dimethyl-1H-pyrrol-3-yl]ethan-1-one], the viability at 48 h, 25 µM stood at 0.754%.
The result for `COc1cc(Cl)c(C)cc1N1C(=O)C=CC1=O` [10-B15, 1-(4-chloro-2-methoxy-5-methylphenyl)-2,5-dihydro-1H-pyrrole-2,5-dione] reads 85.2%; that for `Cc1cc(C(=O)CCl)c(C)n1-c1cccc([N+](=O)[O-])c1` [10-B16, 2-chloro-1-[2,5-dimethyl-1-(3-nitrophenyl)-1H-pyrrol-3-yl]ethan-1-one], 0.976%.
`Cc1c(Cl)cccc1N1C(=O)C=CC1=O` [10-B17, 1-(3-chloro-2-methylphenyl)-2,5-dihydro-1H-pyrrole-2,5-dione]: the viability at 48 h, 25 µM was 130%.
Regarding `Cc1cc(C(=O)CCl)c(C)n1CCc1ccccc1` [10-B18, 2-chloro-1-[2,5-dimethyl-1-(2-phenylethyl)-1H-pyrrol-3-yl]ethan-1-one], the viability at 48 h, 25 µM was determined as 0.0262%.
As for `CS(=O)(=O)N1CCc2cc(C(=O)CCl)ccc21` [10-B19, 2-chloro-1-(1-methanesulfonyl-2,3-dihydro-1H-indol-5-yl)ethan-1-one], the viability at 48 h, 25 µM was 7.21%.
As for `Cc1ccc(C(=O)C(C)Cl)cc1C` (stereo not shown) [10-B20, 2-chloro-1-(3,4-dimethylphenyl)propan-1-one], the viability at 48 h, 25 µM was determined as 85%.
For `O=C(NC1CC1)C1(C(=O)N2CCSSCC2)CCC1` [10-B21, N-cyclopropyl-1-(1,2,5-dithiazepane-5-carbonyl)cyclobutane-1-carboxamide], the viability at 48 h, 25 µM was 95.1%.
As to `CCOC(=O)c1c(C)[nH]c(C(=O)C(C)Cl)c1C` (stereo not shown) [10-B22, ethyl 5-(2-chloropropanoyl)-2,4-dimethyl-1H-pyrrole-3-carboxylate], the viability at 48 h, 25 µM was 95.2%.
The figure for `CCC(=O)Nc1ccc(C(=O)CCl)cc1` [10-C03, N-[4-(2-chloroacetyl)phenyl]propanamide] is 74.1%; for `CCCc1ccc(C(=O)CCl)cc1` [10-C04, 2-chloro-1-(4-propylphenyl)ethan-1-one] it is 54.6%; for `NC(=O)c1coc(C(=O)CCl)c1` [10-C05, 5-(2-chloroacetyl)furan-3-carboxamide] it is 60.9%.

For orientation: viability means a read-out of living cells in per cent, often relative to untreated cells.
